“Also recorded” adds a separate entry of the source. Square brackets hold non-standard residues; d marks the D form. Ends that are not written are not given here. Hyp = O=C(O)[C@@H]1C[C@@H](O)CN1
Experiments:
[1] = system: RBL-2H3 cells; test: Degranulation assay, RBL-2H3 cells primed with monoclonal IgE; type: cell-based, rat; conditions: valency of 18, FIG. 19
Procedure: Cell Culture. RBL-2H3 cells were cultured in Minimum Essential Media (Gibco) with 10% fetal bovine serum (Gemini BioProducts) as previously described.^25
Degranulation Assays. RBL degranulation assays were performed as previously described, expect using nanoallergens as the allergen.^23 Additionally, RBL cells were incubated with 1 μg/mL of total IgE overnight prior to nanoallergen incubation using 75% IgE^cyclinA as an orthogonal IgE (i.e. an IgE specific to a molecule, cyclinA, which is not used in this study) to simulate physiological conditions for all degranulation assays.^21

[2] = biological target: IgE^dansyl; test: Fluorescence quenching titration of dansyl conjugates; type: binding; conditions: monovalent affinity of hapten-amino acid conjugate
Procedure: Fluorescence Quenching Assay. The binding constants for dansyl conjugates were determined as previously described.^27 Briefly, Dansyl conjugates were titrated into wells containing 15 nM IgE^dansyl and then the flourscence read at various concentration points (Ex=280 nm, Em=335).

[3] = biological target: IgE^dansyl; test: Fluorescence quenching binding of HBI molecules to IgE^dansyl
Procedure: Fluorescence Quenching. In order to determine binding of HBI molecules to respective antibodies, we observed the quenching of tryptophan resides using a method previously described. Briefly, either IgE^dansyl or IgG^Penicillin was diluted into a non-binding 96-well dish at 40 nM in PBS. Then, HBI molecules which contained either a dansyl or DNP group were titrated into well and fluorescence (Ex. 280 nm, Em. 335) was observed using a SpectraMax M2 spectrophotometer. PBS and free tryptamine diluted to similar initial fluorescence values were used as controls to account for HBI fluorescence and non-specific quenching respectively.

[4] = system: RBL-SX38 cells; test: Degranulation assay, RBL-SX38 cells primed with peanut allergy patient sera; type: cell-based, rat; conditions: for degranulation response: 2% epitope-lipid nanoallergens, single patient serum (FIG. 4); for Immuno-reactivity: epitope-lipid loaded in nanoallergens, patient sera; for effect on Ara h 2 triggered degranulation: 100 μM free epitope 2, FIG. 13
Procedure: Cell Culture. RBL-SX38 cells were a generous gift from Dr. Jean-Pierre Kinet from Harvard University. RBL-SX38 cells were cultured in Minimum Essential Media (Gibco) with 10% fetal bovine serum (Gemini BioProducts, Sacramento Calif.) and 1.2 mg/mL of G418 salt (Sigma) as previously described.
Degranulation Assays. Degranulation assays were performed as previously described using nanoallergens as the allergen. RBL cells were plated into 96-well dishes for 24 hrs and then incubated with 10% of human sera in cell culture media for an additional 24 hrs prior to the degranulation assay.
Using the mast-like rat basophil leukemia SX38 (RBL) cell line that has been transfected to express the human FcεRI on their surface, applicants can use peanut reactive patient sera in applicants' cellular degranulation assays (FIG. 8). The RBL cells become sensitized when IgEs from the patient sera (including those reactive to peanuts) tightly bind to the high affinity FcεRI. After sensitization, applicants added varying concentrations of either Ara h 2 or nanoallergens with 2% of epitope 2 lipid loaded into the liposome.

[5] = system: Bruton's tyrosine kinase (BTK); test: Western blot of BTK phosphorylation in stimulated RBL-SX38 cells; type: cell-based, rat; conditions: FIG. 3
Procedure: Western Blot. Stimulated RBL cells were analyzed for intracellular activity with a Western blotting technique previously described. RBL-SX38 cells were plated at approximately 0.5×10^6 cells per mL into a 3 mL dish for 24 hours. Cells were then incubated in 10% patient serum in cell culture media for 24 hours. Cells were then washed with Tyrodes buffer and incubated with Tyrodes from 30 minutes at 37° C. Ara h 2 or nanoallergens were then added at varying concentrations and incubated at 37° C. for 3 minutes. Cells were washed with ice cold PBS, then incubated in RIPA with phosphatase inhibitor lysis buffer, scrapped and sonicated for a minute intervals over the course of 30 minutes on ice. Lysates were then spun down at 15000 RPM for 10 minutes and their protein concentration determined by Bradford Assay. Laemmli buffer and PBS were added to all lysates so that their protein concentration was 0.5 mg/mL or would be 0.5 mg/mL prior to immunoprecipitation. Samples were boiled for 5 minutes; centrifuged and 20 uL of each was added to a 10% SDS-PAGE gel. Samples ran on the gel for 1 hr, were transferred to nitrocellulose paper for 1.5 hrs, and blocked with 5% BSA in TBS-T for 1 hr. […] The membranes were washed, and incubated in with Clarity™ Western ECL Blotting Substrate (Bio-Rad) for 5 minutes. Bands were exposed onto Kodak Chemiluminescence Film for times ranging from 1-30 minutes.

[6] = system: patient IgEs; test: ELISA binding assay with patient sera; design: species or system human; conditions: for EC50: patient serum 0, plate coated with anti-IgE IgG
Procedure: ELISA Assay. A high binding 96-well plate was incubated with anti-Human IgE in Carbonate-Bicarbonate buffer (Sigma) at a concentration of 3 nM for 16 hours at 4° C. Plate was washed with washing buffer (PBS with 0.5% tween 20) and then blocked with blocking buffer (5% BSA in PBS with 0.1% tween 20) for 1 hr at room temperature. Plate was washed with automatic plate washer (AquaMax 2000), then varying concentrations of either Ara h 2-Biotin (Indoors Biotechnologies) or FITC-peptide 2 conjugate in blocking buffer for 1 hour. Plate was washed again and then either streptavidin-HRP (1:5000 dilution) or anti-FITC HRP IgG (1:5000 dilution) was added in blocking buffer. After washing, Amplex Red substrate was added (Invitrogen) and plate fluorescence read at 5 minute intervals according to manufacturers instructions.

[7] = various sera from highly allergic individuals; cited from earlier work
[8] = all four patient sera, 2% loaded, FIG. 6

**Q.** For “DNP-BSA: DNP groups covalently bonded to bovine serum albumin, valency of 18, used as a control”, which EC50 [1] is on record?
**A.** 26 ± 9 nM

**Q.** For Dansyl, which Kd [2] is on record?
**A.** 147 nM

**Q.** What about the Kd [3] of the same molecule?
**A.** 29.9 ± 10 nM

**Q.** With “Epitope-Lipid 1: Ara h 2 epitope NLRPCEQHLMQKIQRD (38-53) lipid conjugate, tested loaded at 2% in nanoallergens (also: lipid conjugate, site not given here)” as the molecule, how does the degranulation response [4] read?
**A.** little or no degranulation response

**Q.** And the “degranulation response in patient sera” value ([4]; Serum 1, 2 and 3, in contrast to Serum 0)?
**A.** moderate responses

**Q.** And the Immuno-reactivity [4]?
**A.** None

**Q.** What does the source list for “Epitope-Lipid 2: Ara h 2 epitope ERDPYSP^OHSQDPYSP^OHS (79-91) lipid conjugate, tested loaded at 2% in nanoallergens (ERDPYS[Hyp]SQDPYS[Hyp]S; also: lipid conjugate, site not given here)”?
**A.** fold lower concentration than Ara h 2 to stimulate degranulation ([4]; 2% epitope 2 lipid, FIG. 2C): approximately 10 fold; degranulation response [4]: simulate degranulation; effect of proline hydroxylations on degranulation response ([4]; 2% loaded nanoallergens, with and without hydroxylations, FIG. 10): increase in response when proline hydroxylations are present; Immuno-reactivity [4]: High; fold lower concentration than the other immune-reactive epitope nanoallergens to stimulate degranulation ([4]; single patient serum, FIG. 4): approximately 100 fold; BTK phosphorylation [5]: increase in phosphorylation BTK

**Q.** For “Epitope-Lipid 3: Ara h 2 epitope SDRLQGRQQ (114-123) lipid conjugate, tested loaded at 2% in nanoallergens (also: lipid conjugate, site not given here)”, which degranulation response ([4]; listed as epitope 3) is on record?
**A.** simulate degranulation; also recorded: could trigger degranulation

**Q.** And the Immuno-reactivity [4]?
**A.** Mild

**Q.** What about the “binding through ELISA” value [6] of the same molecule?
**A.** did not demonstrate any binding

**Q.** What does the source list for “Epitope-Lipid 4: Ara h 2 epitope RRCQSQLER (28-35) lipid conjugate, tested loaded at 2% in nanoallergens (also: lipid conjugate, site not given here)”?
**A.** degranulation response ([4]; listed as epitope 4): simulate degranulation; also recorded: little or no degranulation response; degranulation response in patient sera [4, 8]: no response; Immuno-reactivity [4]: None

**Q.** Which results are given for “Epitope-Lipid 5: Ara h 2 epitope HASARQQWEL (15-24) lipid conjugate, tested loaded at 2% in nanoallergens (also: lipid conjugate, site not given here)”?
**A.** degranulation response ([4]; listed as epitope 5): simulate degranulation; also recorded: could trigger degranulation; degranulation response in patient sera [4, 8]: moderate responses; Immuno-reactivity [4]: Mild; binding through ELISA [6]: did not demonstrate any binding

**Q.** With “Epitope-Lipid 6: Ara h 2 epitope RQQEQQFKRELRNLPQQ (120-136) lipid conjugate, tested loaded at 2% in nanoallergens (also: lipid conjugate, site not given here)” as the molecule, how does the degranulation response [4] read?
**A.** simulate degranulation

**Q.** And the “degranulation response in patient sera” value [4, 8]?
**A.** moderate responses

**Q.** And the Immuno-reactivity [4]?
**A.** Mild

**Q.** For “Epitope-Lipid 7: Ara h 2 epitope PQRCDLE (142-148) lipid conjugate, tested loaded at 2% in nanoallergens (also: lipid conjugate, site not given here)”, which degranulation response [4] is on record?
**A.** simulate degranulation

**Q.** What about the “degranulation response in patient sera” value [4, 8] of the same molecule?
**A.** low responses

**Q.** And the Immuno-reactivity [4]?
**A.** Low

**Q.** For “Epitope-Lipid 8: Ara h 2 epitope CDLEVESGGRDRY (145-157) lipid conjugate, tested loaded at 2% in nanoallergens (also: lipid conjugate, site not given here)”, which degranulation response [4] is on record?
**A.** little or no degranulation response

**Q.** And the “degranulation response in patient sera” value ([4]; all four patient sera, 2% loaded, FIG. 6, listed as epitope 8)?
**A.** no response; also recorded: did not demonstrate any degranulation

**Q.** What about the Immuno-reactivity [4] of the same molecule?
**A.** None

**Q.** For “Pep2: FITC-tagged epitope 2 peptide used in ELISA (ERDPYS[Hyp]SQDPYS[Hyp]S; also: FITC-tagged, site not given here)”, which EC50 [6] is on record?
**A.** 465 ± 200 nM

**Q.** Which “effect on Ara h 2 triggered degranulation” value [4] does the source give for “free epitope 2 peptide: free Ara h 2 epitope 2 peptide, used at 100 μM (ERDPYS[Hyp]SQDPYS[Hyp]S)” here?
**A.** only a very small decrease in degranulation response

**Q.** And the “effect on Ara h 2 triggered degranulation” value ([4]; listed as free epitope peptide 2)?
**A.** did not prevent Ara h 2 protein from triggering degranulation

**Q.** What about the “effect on nanoallergen degranulation response” value ([4]; 100 μM free peptide 2, FIG. 9) of the same molecule?
**A.** can be prevented

B1: Ara h2: major peanut allergen, 17.5 kDa 2 S albumin seed storage protein (protein)
chain: RQQWELQGDRRCQSQLERANLRPCEQHLMQKIQRDEDSYGRDPYSPSQDPYSPSQDPDRRDPYSPSPYDRRGAGSSQHQERCCNELNEFENNQRCMCEALQQIMENQSDRLQGRQQEQQFKRELRNLPQQCGLRAPQRCDLEVESGGRDRY
**Q.** What does the source list for B1?
**A.** EC50 [6]: 40 ± 27 nM; EC50 values in cellular studies [7]: low picomolar range
